Like-named read-outs stand apart in the source and are kept apart here.
Key:
[1] = Microsomal stability, human liver microsomes (predicted hepatic clearance); settings: predicted from in vitro microsomal stability data
GLP-1R = GLP-1R (Homo sapiens, UniProt P43220); assay: GLP-1R activation: cAMP increase in CHO cells stably expressing GLP-1R; type: cell-based
[2] = cAMP increase, CHO cells stably expressing GLP-1R, 10 point dose response, 30 minutes incubation, read-out: EC50

Sequence of GLP-1R (P43220 24-463): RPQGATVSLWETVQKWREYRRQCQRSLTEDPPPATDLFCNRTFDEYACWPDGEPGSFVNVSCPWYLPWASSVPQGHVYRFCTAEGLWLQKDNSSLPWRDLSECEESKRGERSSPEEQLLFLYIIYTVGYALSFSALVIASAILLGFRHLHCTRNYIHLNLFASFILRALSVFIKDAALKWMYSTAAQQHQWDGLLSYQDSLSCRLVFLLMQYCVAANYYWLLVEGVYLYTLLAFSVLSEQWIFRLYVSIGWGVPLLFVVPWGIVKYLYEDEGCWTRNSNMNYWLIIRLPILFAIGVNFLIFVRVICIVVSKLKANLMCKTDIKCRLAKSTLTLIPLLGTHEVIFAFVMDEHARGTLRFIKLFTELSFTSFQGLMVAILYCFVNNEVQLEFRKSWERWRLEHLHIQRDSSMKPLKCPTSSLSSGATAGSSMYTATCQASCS

Compound	Predicted Hepatic Clearance (Pred. Cl.) [1] [mL/min/kg]	EC50 (GLP-1R; [2]) [nM]	EC50 (GLP-1R; read-out: EC50) [nM]	EC50 (GLP-1R; EC50 (nM)) [nM]
COCCn1c(Cn2cc(F)c(-c3cccc(OCc4ccc(C#N)cc4F)n3)cc2=O)nc2c(F)cc(C(=O)O)cc21 [Example 684]	3	0.29	–	–
N#Cc1ccc(COc2nccc(-c3cc(F)c(Cc4nc5ccc(C(=O)NS(=O)(=O)C6CC6)cc5n4C[C@@H]4CCO4)cc3F)n2)c(F)c1 [Example 685]	2.33	1.05	–	–
Cc1cc(-c2ccc(F)c(OCc3ccc(C#N)cc3F)n2)ccc1Cc1nc2ccc(C(=O)O)cc2n1C[C@@H]1CCO1 [Example 686]	4	0.55	–	–
COC1(Cn2c(Cc3cc(F)c(-c4cccc(OCc5ccc(C#N)cc5F)n4)cc3F)nc3ccc(C(=O)O)cc32)CN(C(C)=O)C1 [Example 687]	8.67	181	–	–
COC1(Cn2c(Cc3cc(F)c(-c4cccc(OCc5ccc(C#N)cc5F)n4)cc3F)nc3ccc(C(=O)O)cc32)CN(S(C)(=O)=O)C1 [Example 688]	10.3	1220	–	–
CC(=O)N1C[C@@H](F)C[C@@H]1Cn1c(Cc2cc(F)c(-c3cccc(OCc4ccc(C#N)cc4F)n3)cc2F)nc2ccc(C(=O)O)cc21 [Example 690]	6	–	3.98	–
CC(=O)N1C[C@H](F)C[C@@H]1Cn1c(Cc2cc(F)c(-c3cccc(OCc4ccc(C#N)cc4F)n3)cc2F)nc2ccc(C(=O)O)cc21 [Example 691]	4.17	–	0.06	–
COCCn1c(Cc2cc(F)c(-c3cccc(OCc4csc(Cl)c4)n3)cc2F)nc2ccc(C(=O)O)cc21 [Example 692]	1.83	12.3	–	–
COCCn1c(Cc2ccc(-c3cccc(OCc4ccc(Cl)cn4)n3)cc2F)nc2ccc(C(=O)O)cc21 [Example 693]	9.67	15.9	–	–
COCCn1c(Cc2cc(F)c(-c3cccc(OCc4ccn(-c5ccccc5)n4)n3)cc2F)nc2ccc(C(=O)O)cc21 [Example 694]	1.83	41.7	–	–
COC1(Cn2c(Cc3cc(F)c(-c4cccc(OCc5ccc(C#N)cc5F)n4)cc3F)nc3ccc(C(=O)O)cc32)CN(C2COC2)C1 [Example 696]	10.8	592	–	–
CN1CC2CC1(Cn1c(Cc3cc(F)c(-c4cccc(OCc5ccc(C#N)cc5F)n4)cc3F)nc3ccc(C(=O)O)cc31)C2 [Example 697]	1.83	–	25.6	–
N#Cc1ccc(COc2cccc(-c3cc(F)c(Cc4nc5ccc(C(=O)O)cc5n4[C@H]4CCC(F)(F)C4)cc3F)n2)c(F)c1 [Example 698]	6.33	63.2	–	–
N#Cc1ccc(COc2cccc(-c3cc(F)c(Cc4nc5ccc(C(=O)O)cc5n4[C@@H]4CCC(F)(F)C4)cc3F)n2)c(F)c1 [Example 699]	4.67	83.9	–	–
N#Cc1ccc(COc2cccc(-c3cc(F)c(Cc4nc5ccc(C(=O)O)cc5n4C4CCCC4(F)F)cc3F)n2)c(F)c1 (stereo not shown) [Example 700]	5.17	3.48	–	–
CO[C@H]1CC[C@@H]1n1c(Cc2cc(F)c(-c3cccc(OCc4ccc(C#N)cc4F)n3)cc2F)nc2ccc(C(=O)O)cc21 [Example 701]	3.83	145	–	–
N#Cc1ccc(COc2cccc(-c3cc(F)c(Cc4nc5ccc(C(=O)O)cc5n4C4COCCOC4)cc3F)n2)c(F)c1 [Example 702]	2.67	8.14	–	–
N#Cc1ccc(COc2cccc(-c3cc(F)c(Cc4nc5ccc(C(=O)O)cc5n4CC45COCC4C5(F)F)cc3F)n2)c(F)c1 (stereo not shown) [Example 703]	5.67	1.01	–	–
N#Cc1ccc(COc2cccc(-c3cc(F)c(Cc4nc5ccc(C(=O)O)cc5n4CC45COCC4C5)cc3F)n2)c(F)c1 (stereo not shown) [Example 704]	1.83	0.98	–	–
N#Cc1ccc(COc2cccc(-c3cc(F)c(Cc4nc5ccc(C(=O)O)cc5n4[C@H]4CC[C@@H]4O)cc3F)n2)c(F)c1 [Example 705]	13.3	73.2	–	–
N#Cc1ccc(COc2cccc(-c3cc(F)c(Cc4nc5ccc(C(=O)O)cc5n4Cc4cncs4)cc3F)n2)c(F)c1 [Example 706]	12.2	1.31	–	–
N#Cc1ccc(COc2cccc(-c3cc(F)c(Cc4nc5ccc(C(=O)O)cc5n4Cc4nccs4)cc3F)n2)c(F)c1 [Example 707]	4	4.81	–	–
CO[C@@H]1CCC[C@@H]1n1c(Cc2cc(F)c(-c3cccc(OCc4ccc(C#N)cc4F)n3)cc2F)nc2ccc(C(=O)O)cc21 [Example 708]	7.5	0.64	–	–
CO[C@H]1CCC[C@@H]1n1c(Cc2cc(F)c(-c3cccc(OCc4ccc(C#N)cc4F)n3)cc2F)nc2ccc(C(=O)O)cc21 [Example 709]	8.83	4.77	–	–

Compound	Predicted Hepatic Clearance (Pred. Cl.) [1] [mL/min/kg]	EC50 (GLP-1R; [2]) [nM]	EC50 (GLP-1R; read-out: EC50) [nM]	EC50 (GLP-1R; EC50 (nM)) [nM]
N#Cc1ccc(COc2cccc(-c3cc(F)c(Cc4nc5ccc(C(=O)O)cc5n4[C@H]4CCC[C@@]45CCCO5)cc3F)n2)c(F)c1 [Example 710]	11	1.45	–	–
CO[C@@H]1COC[C@@H]1n1c(Cc2cc(F)c(-c3cccc(OCc4ccc(C#N)cc4F)n3)cc2F)nc2ccc(C(=O)O)cc21 [Example 711]	6.33	0.08	–	–
CO[C@H]1COC[C@@H]1n1c(Cc2cc(F)c(-c3cccc(OCc4ccc(C#N)cc4F)n3)cc2F)nc2ccc(C(=O)O)cc21 [Example 712]	6.83	2.55	–	–
N#Cc1ccc(COc2cccc(-c3cc(F)c(Cc4nc5ccc(C(=O)O)cc5n4CC4(F)CCOCC4)cc3F)n2)c(F)c1 [Example 713]	2.5	5.76	–	–
CC12CCC(Cn3c(Cc4cc(F)c(-c5cccc(OCc6ccc(C#N)cc6F)n5)cc4F)nc4ccc(C(=O)O)cc43)(C1)OC2 (stereo not shown) [Example 714]	1.83	24.9	–	–
COC(Cn1c(Cc2cc(F)c(-c3cccc(OCc4ccc(C#N)cc4F)n3)cc2F)nc2ccc(C(=O)O)cc21)C(F)(F)F (stereo not shown) [Example 715]	2	4.01	–	–
COC[C@@H](c1ccccc1)n1c(Cc2cc(F)c(-c3cccc(OCc4ccc(C#N)cc4F)n3)cc2F)nc2ccc(C(=O)O)cc21 [Example 716]	2.17	2740	–	–
COC[C@H](c1ccccc1)n1c(Cc2cc(F)c(-c3cccc(OCc4ccc(C#N)cc4F)n3)cc2F)nc2ccc(C(=O)O)cc21 [Example 717]	7.5	41.5	–	–
N#CCC1(Cn2c(Cc3cc(F)c(-c4cccc(OCc5ccc(C(F)F)cc5F)n4)cc3F)nc3ccc(C(=O)O)cc32)CC1 [Example 718]	1.83	0.05	–	–
O=C(O)c1ccc2nc(Cc3cc(F)c(-c4cccc(OCc5ccc(C(F)F)cc5F)n4)cc3F)n(CC3(CF)CC3)c2c1 [Example 719]	1.83	0.37	–	–
N#Cc1ccc(COc2cccc(-c3cc(F)c(Cc4nc5ccc(C(=O)O)cc5n4[C@@H]4C[C@H]4C(F)F)cc3F)n2)c(F)c1 [Example 720]	5.33	27.8	–	–
CC(C)(Cn1c(Cc2cc(F)c(-c3cccc(OCc4ccc(C#N)cc4F)n3)cc2F)nc2ccc(C(=O)O)cc21)OC(F)F [Example 721]	7.83	1.31	–	–
C[C@H](O)Cn1c(Cc2cc(F)c(-c3cccc(OCc4ccc(C#N)cc4F)n3)cc2F)nc2ccc(C(=O)O)cc21 [Example 723]	3.5	–	–	5.19
C[C@@H](O)Cn1c(Cc2cc(F)c(-c3cccc(OCc4ccc(C#N)cc4F)n3)cc2F)nc2ccc(C(=O)O)cc21 [Example 724]	6.67	–	–	15.1
CO[C@@H]1CCCC[C@@H]1n1c(Cc2cc(F)c(-c3cccc(OCc4ccc(C#N)cc4F)n3)cc2F)nc2ccc(C(=O)O)cc21 [Example 725]	9.5	3.68	–	–
COC[C@@H](CF)n1c(Cc2cc(F)c(-c3cccc(OCc4ccc(C#N)cc4F)n3)cc2F)nc2ccc(C(=O)O)cc21 [Example 726]	5.5	7.26	–	–
COC[C@H](CF)n1c(Cc2cc(F)c(-c3cccc(OCc4ccc(C#N)cc4F)n3)cc2F)nc2ccc(C(=O)O)cc21 [Example 727]	5.5	46.3	–	–
N#Cc1ccc(COc2cccc(-c3cc(F)c(Cc4nc5ccc(C(=O)O)cc5n4C4CC5(COC5)C4)cc3F)n2)c(F)c1 [Example 728]	8.33	93.6	–	–
N#Cc1ccc(COc2cccc(-c3cc(F)c(Cc4nc5ccc(C(=O)O)cc5n4CC4(F)CC4)cc3F)n2)c(F)c1 [Example 729]	1.83	1.03	–	–
N#Cc1ccc(COc2cccc(-c3cc(F)c(Cc4nc5ccc(C(=O)O)cc5n4CC4(COC(F)F)CC4)cc3F)n2)c(F)c1 [Example 730]	1.83	0.98	–	–
COC[C@H]1C[C@H](n2c(Cc3cc(F)c(-c4cccc(OCc5ccc(C#N)cc5F)n4)cc3F)nc3ccc(C(=O)O)cc32)C1 [Example 731]	10.3	290	–	–
COCC(COC)n1c(Cc2cc(F)c(-c3cccc(OCc4ccc(C#N)cc4F)n3)cc2F)nc2ccc(C(=O)O)cc21 [Example 732]	8.17	169	–	–
N#Cc1ccc(COc2cccc(-c3cc(F)c(Cc4nc5ccc(C(=O)O)cc5n4CC4(O)CC4)cc3F)n2)c(F)c1 [Example 733]	3.83	2.47	–	–
